Measured values published in PMC11574862 (The Journal of General Physiology, 2024).
Values joined by “and” are separate entries in the source; they are usually repeats but may differ in a detail not shown here. Equal values may be shown once.

Tests used:
Format in all cases: binding
VC0430 (VcGluP) wildtype [1] = biological target: T1, VC0430 (VcGluP) wildtype (Vibrio cholerae, UniProt Q9KUT5); assay: biochemical
VC0430 (VcGluP) wildtype [2] = biological target: T1, VC0430 (VcGluP) wildtype
VcGluP Q93A = VcGluP Q93A (Vibrio cholerae, UniProt Q9KUT5, Q93A)
VcGluP S75A = VcGluP S75A (Vibrio cholerae, UniProt Q9KUT5, S75A)
VcGluP Y45A = VcGluP Y45A (Vibrio cholerae, UniProt Q9KUT5, Y45A)
VcGluP Y200A = VcGluP Y200A (Vibrio cholerae, UniProt Q9KUT5, Y200A)
VcGluP M201A = VcGluP M201A (Vibrio cholerae, UniProt Q9KUT5, M201A)
VcGluP E125A = VcGluP E125A (Vibrio cholerae, UniProt Q9KUT5, E125A)

SMILES	Average Tm (VC0430 (VcGluP) wildtype [2])	Tm Replicate 1 (VC0430 (VcGluP) wildtype [2])	Tm Replicate 2 (VC0430 (VcGluP) wildtype [2])	Tm Replicate 3 (VC0430 (VcGluP) wildtype [2])	Kd (VC0430 (VcGluP) wildtype [1]) [µM]	change in VC0430's Tm (Tm increase) (VC0430 (VcGluP) wildtype [2])	also measured
NC(=O)CCC(N)C(=O)O (stereo in doubt) [D-glutamine]	46.40 °C and 47.06 °C and 48.72 °C	46.73 °C and 46.72 °C and 48.72 °C	45.74 °C and 47.72 °C and 48.72 °C	46.73 °C (2×) and 48.72 °C			fluorescence enhancement in titration (Kd could not be determined) (VC0430 (VcGluP) wildtype [1]): lack of fluorescence enhancement
N[C@H](CCC(=O)O)C(=O)O [D-glutamate]	58.65 °C	58.65 °C	58.65 °C	58.65 °C	24.5 ± 10.6		
N[C@@H](CC(=O)O)C(=O)O [L-aspartate]	47.06 °C	47.72 °C	45.74 °C	47.73 °C		no change	
N[C@@H](CCC(=O)O)C(=O)O [L-glutamate]					0.065 ± 0.031		ligand concentration needed to saturate fluorescence enhancement (VcGluP Q93A): a higher concentration was required; ligand concentration giving maximum fluorescence enhancement (VcGluP S75A): ≤ 50 µM; ligand concentration giving maximum fluorescence enhancement (VcGluP Y45A): ≤ 50 µM; ligand concentration giving maximum fluorescence enhancement (VcGluP Y200A): ≤ 50 µM; ligand concentration giving maximum fluorescence enhancement (VcGluP M201A): ≤ 50 µM; ligand concentration giving maximum fluorescence enhancement (VcGluP E125A): ≤ 50 µM
NC(=O)CC[C@H](N)C(=O)O [L-glutamine]			50.70 °C and 53.68 °C and 55.67 °C and 50.71 °C		11 ± 2		
NCCCC[C@H](N)C(=O)O [L-lysine]	44.41 °C	43.75 °C	44.74 °C	44.74 °C		no change	
O=C(O)[C@@H]1CCC(O)=N1 [L-pyroglutamate]					50 ± 16		effect on VcGluP's stability (DSF) (VC0430 (VcGluP) wildtype [2]): enhanced VcGluP’s stability in a dose-dependent manner
O=C(O)CCCCC(=O)O [adipate]	44.74 °C	43.75 °C	45.74 °C	44.74 °C		no change	
O=C(O)CCC(=O)C(=O)O [α-ketoglutarate]	47.39 °C	50.71 °C	45.74 °C	45.74 °C		no change	
